Values quoted from earlier work in publication PMC4258517 (Antiviral research, 2014).

Legend:
[1] = test system: SV40 large T antigen ATPase; conditions: ref Seguin et al., 2012b
[2] = read-out: MTS assay IC50; cytotoxicity; ref Seguin et al., 2012b
patients with PML = conditions: trial prematurely terminated, ref Clifford et al., 2013
SV40 = conditions: 100 μM; ref Wright et al., 2009
BKV = conditions: HK2 cells, 15 μM; ref Wright et al., 2009

SMILES	mechanism of inhibition on SV40 protein [1]	IC50 [2] [µM]	clinical trial outcome (patients with PML)	reduction in SV40 DNA replication (SV40)	reduction of BKV viral load (BKV)
Oc1c(Cl)cc(Cl)cc1Sc1cc(Cl)cc(Cl)c1O [bithionol]	competitive	68			
Oc1c(Cl)cc(Cl)c(Cl)c1Cc1c(O)c(Cl)cc(Cl)c1Cl [hexachlorophene]	competitive	55			
OC(c1cc(C(F)(F)F)nc2c(C(F)(F)F)cccc12)C1CCCCN1 (stereo not shown) [Mefloquine]			lack of efficacy		
CC1=C(C(=O)OCc2ccccc2)C(c2ccc(-c3ccccc3)cc2)NC(=O)N1CCCCCC(=O)O (stereo not shown) [MAL2-11B]				fivefold reduction	one log reduction
